Values of other authors in patent US20140349957A1, “Compositions for Photodynamic Therapy Chemically Modified to Increase Epithelia Penetration and Cellular Bioavailability” (YAGNA LIMITED, priority 2011, published 2014).

System: cells which have incorporated the drug

Cc1cn([C@H]2C[C@H](O)[C@@H](CO)O2)c(=O)[nH]c1=S [4 thiothymidine, 4-thiothymidine]
toxicity of exposure to drug alone (drug alone, no UV-A): does not result in appreciable toxicity | toxicity to cells upon excitation (excitation at 335 nm (UV-A)): results in toxicity to the cells which have incorporated the drug
